The results in this text go back to PMC5007854, “β-Nitrostyrenes as Potential Anti-leishmanial Agents” (Frontiers in Microbiology, 2016).

In brackets after ≈: the same amount, converted by molar mass.

For series [1], the system named is Staphylococcus epidermidis ATCC 14990. Description: Broth microdilution antibacterial susceptibility (MIC/MBC). It is filed as cell-based. The conditions noted are these: Staphylococcus epidermidis; for MIC: ATCC14990, 24 h, broth microdilution, 35°C, 24 h, read-out: MIC, Se ATCC 14990; for MBC: ATCC14990, ≥99.9% reduction of original inoculum, read-out: MBC, Se ATCC 14990. The text has this:
(§1) One reference each of the following species was used for their in vitro susceptibility to β-nitrostyrene in this study: Staphylococcus aureus ATCC 29213, Staphylococcus epidermidis ATCC 14990, Escherichia coli ATCC 25922, Pseudomonas aeruginosa ATCC 27853, Candida albicans ATCC 90028, Candida glabrata ATCC 90030, Aspergillus fumigatus ATCC 16424 and Aspergillus niger ATCC 16404. These strains were procured from the American Type Culture Collection (ATCC, Manassas, VA, USA).
(§2) The antibacterial and antifungal activities of the β-nitrostyrenes were performed by broth microdilution methods as per the guidelines of Clinical and Laboratory Standard Institute (Wayne, [1998], [2008a],[b],[c]) by using Mueller-Hinton broth (MHB; Becton-Dickinson, Cockeysville, MD, USA) supplemented with calcium (25 mg/L) and magnesium (12.5 mg/L) for bacterial strains while as RPMI 1640 medium with L-glutamine and without sodium bicarbonate, buffered to pH 7.0 with 0.165 M 3-(N-morpholino) propanesulfonic acid (MOPS; both from Sigma) was used for fungal strains. Stock solutions were prepared in 100% dimethyl sulfoxide (DMSO; Sigma; distilled water was used for ciprofloxacin), with a final DMSO concentration of 1% (vol. per vol.) and two-fold serial dilutions were prepared in media in amounts of 100 μL per well in 96-well U-bottom microtiter plates (Tarsons, Kolkata, India) to yield twice the final concentration required for testing, which ranged from 64 to 0.12 μg/mL for β-nitrostyrenes and 16 to 0.03 μg/mL for ciprofloxacin as well as amphotericin B. Stock inoculum suspensions of the bacteria, Candida species and Aspergillus species were prepared in sterile normal saline (0.85%) containing 0.05% polysorbate 20 (NST) from overnight (3 to 5-day old for Aspergillus species) strains grown on Trypticase soy agar (TSA; Becton-Dickinson) and potato dextrose agar (Difco Laboratories, Detroit, MI, USA) respectively at 35°C. Inocula were verified for each assay by plating onto agar plates for colony enumeration. These suspensions were further diluted in the respective test medium and a 100 μl volume of this diluted inoculum was added to each well of the plate, resulting in a final inoculum concentration of approximately 5 × 10^5 CFU/mL for bacter1ia, (Wayne, [2008a]) approximately 2.5 × 10^4 CFU/ml for Candida species (Pfaller et al., [2004]) while as 0.4 × 10^4 to 5 × 10^4 CFU/mL for Aspergillus species (Wayne, [2008c]). Untreated growth control, vehicle control (DMSO) and sterility control wells were included for each isolate tested. Ciprofloxacin and amphotericin B served as the standard drug controls for bacterial and fungal strains, respectively. The microtiter plates were incubated at 35°C for 24 h for bacterial strains and 48 h for fungal strains. The plates were read visually and the minimum inhibitory concentration (MIC) was defined as the lowest concentration of test sample that prevented visible growth with respect to the growth control.
(§3) The minimum bactericidal concentration (MBC) and minimum fungicidal concentration (MFC) were determined by plating 100 μl volumes on agar plates from the wells showing no visible growth (clear MIC well). The plates were incubated as described above in MIC measurements. […] All experiments were conducted twice in duplicates on separate occasions with freshly prepared inoculums and stock solutions.

The test system of series [2] is Escherichia coli ATCC 25922. Described as above. It is filed as cell-based. The settings on record: Escherichia coli; for MIC: ATCC25922, 24 h, broth microdilution, 35°C, 24 h, read-out: MIC, Ec ATCC 25922; for MBC: ATCC25922, ≥99.9% reduction of original inoculum, read-out: MBC, Ec ATCC 25922.
Description: as §1, §2, §3

Series [3] relates to Staphylococcus aureus ATCC 29213. The series is described as above. It is filed as cell-based. The conditions noted are these: Staphylococcus aureus; for MIC: ATCC29213, 24 h, broth microdilution, 35°C, 24 h, read-out: MIC, Sa ATCC 29213; for MBC: ATCC29213, ≥99.9% reduction of original inoculum, read-out: MBC, Sa ATCC 29213.
Description: as §1, §2, §3

For series [4], the system named is Pseudomonas aeruginosa ATCC 27853. Described as above. The conditions noted are these: Pseudomonas aeruginosa; for MIC: ATCC27853, 24 h, broth microdilution, 35°C, 24 h, read-out: MIC, Pa ATCC 27853; for MBC: ATCC27853, ≥99.9% reduction of original inoculum, read-out: MBC, Pa ATCC 27853. The format is cell-based.
Description: as §1, §2, §3

The test system of series [5] is L. donovani promastigotes. Nature of the series: Anti-leishmanial screening at 100 μM, parasite viability by microscopy. The settings on record: L. donovani promastigotes. It is filed as cell-based, Leishmania donovani. The protocol:
L. donovani parasites (MHOM/IN/83/AG83) were maintained in vivo in BALB/c mice. Promastigotes were routinely cultured at 22°C in medium M199 supplemented with 10% heat inactivated fetal bovine serum (FBS, HiMedia Laboratories, Mumbai, India), penicillin 100 (IU/ml), streptomycin (100 μg/ml). Log phase promastigotes were sub-cultured every 72–96 h, the inoculum being 2 × 10^6 cells/ml (Afrin et al., [2002]).
Nitrostyrine series were screened for their antileishmanial activity against L. donovani promastigotes in vitro. Promastigotes of L. donovani (2 × 10^6 cells/mL) in M199 medium were incubated at 22°C for 72 h with each compound at a concentration of 100 μM. Amphotericin B (AmB) served as reference drug, 0.2% DMSO was used as solvent control. Parasites with media alone were taken as control. Parasite viability was determined microscopically after 72 h (Islamuddin et al., [2014b]).

Series [6] concerns Aspergillus fumigatus ATCC 16424. Nature of the series: Broth microdilution antifungal susceptibility (MIC/MFC). The format is cell-based. The settings on record: Aspergillus fumigatus; for MIC: ATCC16424, 48 h, broth microdilution, 35°C, 48 h, read-out: MIC, Af ATCC 16424; for MFC: ATCC16424, ≥99.9% reduction of original inoculum, read-out: MFC, Af ATCC 16424.
Description: as §1, §2, §3

The subject of series [7] is Candida albicans ATCC 90028. Described as above. The format is cell-based. The conditions noted are these: Candida albicans; for MIC: ATCC90028, 48 h, broth microdilution, 35°C, 48 h, read-out: MIC, Ca ATCC 90028; for MFC: ATCC90028, ≥99.9% reduction of original inoculum, read-out: MFC, Ca ATCC 90028.
Description: as §1, §2, §3

For series [8], the system named is Candida glabrata ATCC 90030. The series is described as above. The format is cell-based. The settings on record: Nakaseomyces glabratus; for MIC: ATCC90030, 48 h, broth microdilution, 35°C, 48 h, read-out: MIC, Cg ATCC 90030; for MFC: ATCC90030, ≥99.9% reduction of original inoculum, read-out: MFC, Cg ATCC 90030.
Description: as §1, §2, §3

In series [9] the test system is Aspergillus niger ATCC 16404. Described as above. It is filed as cell-based. The conditions noted are these: Aspergillus niger; for MIC: ATCC16404, 48 h, broth microdilution, 35°C, 48 h, read-out: MIC, An ATCC 16404; for MFC: ATCC16404, ≥99.9% reduction of original inoculum, read-out: MFC, An ATCC 16404.
Description: as §1, §2, §3

With `CC/C(=C\c1ccc(OC)cc1)[N+](=O)[O-]` [Compound 15, 1-methoxy-4-((E)-2-nitrobut-1-enyl) benzene], the MIC in series [1] is 16 µg/mL (≈ 77.2 µM); in series [2], more than 64 µg/mL; in series [3], 16 µg/mL (≈ 77.2 µM); in [4], more than 64 µg/mL; in series [6], 8 µg/mL (≈ 38.6 µM); in series [7], 32 µg/mL (≈ 154 µM). The MIC in [8] turned out to be 16 µg/mL (≈ 77.2 µM); in [9] it was 8 µg/mL (≈ 38.6 µM). Moreover, the MBC is 16 µg/mL (≈ 77.2 µM) in series [1], more than 64 µg/mL in series [2], 32 µg/mL (≈ 154 µM) in series [3] and more than 64 µg/mL in [4]. Further, the “Anti-leishmanial activity, in words (SAR discussion)” value (“Anti-leishmanial activity, in words” below) in series [5] is listed as “reduced the activity”. For the same compound, the minimum fungicidal concentration (MFC) in [6] amounted to 16 µg/mL (≈ 77.2 µM); in series [7] it was 32 µg/mL (≈ 154 µM); in series [8], 16 µg/mL (≈ 77.2 µM); in series [9] it was 8 µg/mL (≈ 38.6 µM).

Turning to `COc1ccc(/C=C/[N+](=O)[O-])cc1OC` [Compound 22, 1,2-dimethoxy-4-((E)-2-nitrovinyl) benzene], the MIC is 64 µg/mL (≈ 306 µM) in [1]; more than 64 µg/mL in [2]; more than 64 µg/mL in series [3]; more than 64 µg/mL in [4]; 32 µg/mL (≈ 153 µM) in [6]; 64 µg/mL (≈ 306 µM) in series [7]. Also, the MIC in [8] came out at 16 µg/mL (≈ 76.5 µM); in [9], 32 µg/mL (≈ 153 µM). Also, the MBC is 64 µg/mL (≈ 306 µM) in series [1], more than 64 µg/mL in [2], more than 64 µg/mL in [3] and more than 64 µg/mL in [4]. Besides, in [5], the “Anti-leishmanial activity, in words” value was “inactive”. Further, the MFC stood at 64 µg/mL (≈ 306 µM) in series [6], 64 µg/mL (≈ 306 µM) in series [7], 16 µg/mL (≈ 76.5 µM) in series [8] and 32 µg/mL (≈ 153 µM) in series [9].

With `CC/C(=C\c1ccc(OC)c(OC)c1)[N+](=O)[O-]` [Compound 24, 1,2-dimethoxy-4-((E)-2-nitrobut-1-enyl) benzene], the melting point is 78 to 80 °C. Further, the “Anti-leishmanial activity, in words” value in [5] is “inactive”.

With `C/C(=C\[N+](=O)[O-])c1ccc(O)cc1` [Compound 25, 4-((E)-1-nitroprop-1-en-2-yl)phenol], the melting point fell in the range of 88 to 90 °C. In addition, in series [5], the “Anti-leishmanial activity, in words” value is reported as “loss of activity”.

Turning to `C/C(=C\c1c[nH]c2ccccc12)[N+](=O)[O-]` [Compound 29, 3-((E)-2-nitroprop-1-enyl)-1H-indole], the melting point is 182 to 184 °C. Further, in series [1], the MIC was found to be 8 µg/mL (≈ 39.6 µM) and the MBC amounted to 8 µg/mL (≈ 39.6 µM). In addition, in series [2], the MIC was more than 64 µg/mL and the MBC was more than 64 µg/mL. Moreover, in series [3], the MIC was 16 µg/mL (≈ 79.1 µM) and the MBC is 16 µg/mL (≈ 79.1 µM). Also, in series [4], the MIC is more than 64 µg/mL and the MBC was more than 64 µg/mL. Also, in series [6], the MIC is 16 µg/mL (≈ 79.1 µM) and the MFC turned out to be 16 µg/mL (≈ 79.1 µM). Besides, in [7], the MIC was 64 µg/mL (≈ 316 µM) and the MFC worked out at 64 µg/mL (≈ 316 µM). Also, in series [8], the MIC was 8 µg/mL (≈ 39.6 µM) and the MFC came to 8 µg/mL (≈ 39.6 µM). Further, in series [9], the MIC amounted to 8 µg/mL (≈ 39.6 µM) and the MFC was found to be 8 µg/mL (≈ 39.6 µM).

`CC/C(=C\c1c[nH]c2ccccc12)[N+](=O)[O-]` [Compound 30, 3-((E)-2-nitrobut-1-enyl)-1H-indole]: the melting point lay in the range of 64 to 66 °C. In [1], the minimum inhibitory concentration (MIC) stood at 8 µg/mL (≈ 37 µM) and the MBC was 8 µg/mL (≈ 37 µM). For the same compound, in series [2], the MIC came to 64 µg/mL (≈ 296 µM) and the MBC is more than 64 µg/mL. For the same compound, in [3], the MIC came out at 16 µg/mL (≈ 74 µM) and the MBC was found to be 16 µg/mL (≈ 74 µM). For the same compound, in series [4], the MIC was more than 64 µg/mL and the MBC is more than 64 µg/mL. In series [6], the MIC amounted to 64 µg/mL (≈ 296 µM) and the MFC was found to be 64 µg/mL (≈ 296 µM). Moreover, in series [7], the MIC was more than 64 µg/mL and the MFC is more than 64 µg/mL. Further, in series [8], the MIC was determined as 32 µg/mL (≈ 148 µM) and the MFC turned out to be 64 µg/mL (≈ 296 µM). Also, in series [9], the MIC amounted to 32 µg/mL (≈ 148 µM) and the MFC was found to be 32 µg/mL (≈ 148 µM).
